{
  "source": "patent US7416848B2",
  "about": "“DNA encoding SNORF25 receptor” (H. Lundbeck A/S, priority 1999, dated 2008)",
  "key": {"[1]": {"molecular_target": "T1, SNORF25 (Homo sapiens, UniProt Q8TDV5)", "T1 sequence (Q8TDV5 1-335)": "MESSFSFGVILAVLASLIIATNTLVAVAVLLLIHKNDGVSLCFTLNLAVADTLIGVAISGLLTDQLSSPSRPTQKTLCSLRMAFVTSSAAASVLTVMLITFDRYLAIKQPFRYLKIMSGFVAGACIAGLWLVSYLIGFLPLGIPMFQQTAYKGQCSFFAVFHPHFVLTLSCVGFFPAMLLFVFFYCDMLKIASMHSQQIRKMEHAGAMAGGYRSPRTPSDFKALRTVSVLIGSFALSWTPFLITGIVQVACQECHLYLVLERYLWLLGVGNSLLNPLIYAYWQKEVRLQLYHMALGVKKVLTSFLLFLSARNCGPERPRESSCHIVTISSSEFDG", "assay": "Stimulation of cAMP release by CHO cells stably expressing hSNORF25 receptors", "format": "cell-based", "parameters": "expressed in transfected cells", "conditions": "for stimulation of cAMP: 10 μM, data not shown; for % of PAF(C18) Response: maximum response as % of maximum response produced by PAF(C18) (taken as 100%); for EC50: mean ± S.E.M., at least 3 experiments, CHO cells stably expressing hSNORF25", "method": "(§1) CHO cells are grown on 150 mm plates in HAM's F-12 medium with supplements (10% bovine calf serum, 4 mM L-glutamine and 100 units/ml penicillin/100 μg/ml streptomycin) at 37° C., 5% CO2. Stock plates of CHO cells are trypsinized and split 1:8 every 3–4 days.\nHeterologous DNA can be stably incorporated into host cells, causing the cell to perpetually express a foreign protein. Methods for the delivery of the DNA into the cell are similar to those described above for transient expression but require the co-transfection of an ancillary gene to confer drug resistance on the targeted host cell. The ensuing drug resistance can be exploited to select and maintain cells that have taken up the DNA. An assortment of resistance genes are available including but not restricted to neomycin, kanamycin, and hygromycin. For the purposes of studies concerning the receptor of this invention, stable expression of a heterologous receptor protein is typically carried out in, mammalian cells including but not necessarily restricted to, CHO, HEK293, LM(tk−), etc.\n(§2) The receptor-mediated stimulation or inhibition of cyclic AMP (cAMP) formation may be assayed in cells expressing the receptors. According to one method, cells are plated in 96-well plates or other vessels and preincubated in a buffer such as HEPES buffered saline (NaCl (150 mM), CaCl2 (1mM), KCl (5 mM), glucose (10 mM)) supplemented with a phosphodiesterase inhibitor such as 5 mM theophylline, with or without protease inhibitor cocktail (For example, a typical inhibitor cocktail contains 2 μg/ml aprotinin, 0.5 mg/ml leupeptin, and 10 μg/ml phosphoramidon.) for 20 min at 37° C., in 5% CO2. Test compounds are added with or without […] and incubated for an additional 10 min at 37° C. The medium is then aspirated and the reaction stopped by the addition of 100 mM HCl or other methods. The plates are stored at 4° C. for 15 min, and the cAMP content in the stopping solution is measured by radioimmunoassay. Radioactivity may be quantified using a gamma counter equipped with data reduction software. Specific modifications may be performed to optimize the assay for the receptor or to alter the detection method of cAMP.\nas §2, with “According” for “The receptor-mediated stimulation or inhibition of cyclic AMP (cAMP) formation may be assayed in cells expressing the receptors. According”, “a second” for “one”, “washed 2 times with” for “plated in 96-well plates or other vessels and preincubated in a buffer such as”, “saline, as described above, and incubated overnight. On the day of the experiment, cells are washed 2 times with HEPES” for “saline (NaCl (150 mM), CaCl2 (1mM), KCl (5 mM), glucose (10 mM))”\nSeveral other closely related analogues of PAF namely Lyso-PAF with different carbon chains also stimulated cAMP."}, "[2]": {"molecular_target": "T1, SNORF25", "assay": "CFTR Cl- currents in Xenopus oocytes co-injected with SNORF25 and CFTR mRNA", "format": "cell-based", "parameters": "from linearized plasmids or PCR products containing the complete coding region of the genes; expressed in transfected cells; host or cells: Xenopus laevis oocytes injected with SNORF25 mRNA (with or without CFTR mRNA)", "conditions": "10 μM; for CFTR current response: oocytes with SNORF25 and CFTR mRNA (FIG. 12A)", "method": "Oocytes are harvested from Xenopus laevis and injected with mRNA transcripts as previously described (Quick and Lester, 1994; Smith et al., 1997). The test receptor of this invention and Gα subunit RNA transcripts are synthesized using the T7 polymerase (“Message Machine,” Ambion) from linearized plasmids or PCR products containing the complete coding region of the genes. Oocytes are injected with 10 ng synthetic receptor RNA and incubated for 3–8 days at 17 degrees. Three to eight hours prior to recording, oocytes are injected with 500 pg promiscuous Gα subunits mRNA in order to observe coupling to Ca^++ activated Cl^− currents.\nEach of the compounds was tested at 10 μM. Oocytes expressing SNORF25 generated inward Cl^− currents, consistent with CFTR activation, in response to all four of the ligands.\nThe activity of SNORF25 was therefore tested in oocytes co-injected with mRNA encoding SNORF25 and mRNA encoding CFTR. In 17 out of 39 of these oocytes an inward Cl^− current (105±20 nA) was measured in response to the application of 10 μM all-trans-retinoic acid (See FIGS. 9A–9C and 10)."}, "[3]": {"test_system": "isolated rat pancreatic islets", "conditions": "cited from earlier work"}, "[4]": {"molecular_target": "PAF receptors (Homo sapiens, UniProt P25105)", "sequence (P25105 whole entry)": "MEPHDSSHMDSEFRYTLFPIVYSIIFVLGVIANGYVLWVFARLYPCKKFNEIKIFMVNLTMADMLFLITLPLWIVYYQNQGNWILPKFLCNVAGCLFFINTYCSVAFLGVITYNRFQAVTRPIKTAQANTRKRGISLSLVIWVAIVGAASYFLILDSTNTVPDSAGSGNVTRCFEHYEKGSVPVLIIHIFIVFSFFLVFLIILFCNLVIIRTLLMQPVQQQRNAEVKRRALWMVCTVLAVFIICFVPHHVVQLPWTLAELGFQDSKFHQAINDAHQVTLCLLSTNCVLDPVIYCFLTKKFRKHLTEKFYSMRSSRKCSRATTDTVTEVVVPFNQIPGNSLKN", "conditions": "cloned or native PAF receptors; cited from earlier work"}, "[5]": {"test_system": "untransfected CHO cells", "assay": "cAMP release in native untransfected CHO cells", "format": "cell-based, Chinese hamster", "conditions": "FIG. 11A", "method": "as §1\nas §2, with “cAMP. […]” for “cAMP.”"}, "[6]": {"test_system": "SNORF25 receptor", "assay": "cAMP release in Cos-7 cells transiently transfected with SNORF25", "format": "cell-based", "conditions": "Cos-7 cells transiently transfected with SNORF25; preliminary, data not shown", "method": "(§3) COS-7 cells are grown on 150 mm plates in DMEM with supplements (Dulbecco's Modified Eagle Medium with 10% bovine calf serum, 4 mM glutamine, 100 units/ml penicillin/100 μg/ml streptomycin) at 37° C., 5% CO2. Stock plates of COS-7 cells are trypsinized and split 1:6 every 3–4 days.\n(§4) A typical protocol for the electroporation method as applied to Cos-7 cells is described as follows. Cells to be used for transfection are split 24 hours prior to the transfection to provide flasks which are subconfluent at the time of transfection. The cells are harvested by trypsinization resuspended in their growth media and counted. 5×10^6 cells are suspended in 300 μl of DMEM and placed into an electroporation cuvette. 8 μg of receptor DNA plus 8 μg of any additional DNA needed (e.g. G protein expression vector, reporter construct, antibiotic resistance marker, mock vector, etc.) is added to the cell suspension, the cuvette is placed into a BioRad Gene Pulser and subjected to an electrical pulse (Gene Pulser settings: 0.25 kV voltage, 950 μF capacitance). […]\n(§5) The receptor-mediated stimulation or inhibition of cyclic AMP (cAMP) formation may be assayed in cells expressing the receptors. […] The plates are stored at 4° C. for 15 min, and the cAMP content in the stopping solution is measured by radioimmunoassay. Radioactivity may be quantified using a gamma counter equipped with data reduction software. […]"}, "[7]": {"test_system": "mock-transfected Cos-7 cells", "assay": "cAMP in mock-transfected Cos-7 cells", "format": "cell-based", "conditions": "preliminary", "method": "as §3, §4, §5"}, "[8]": {"molecular_target": "T2, SNORF25 receptor (Rattus norvegicus, UniProt Q7TQN8)", "T2 construct": "the entire coding region was amplified from Rin14b cell line cDNA and rat genomic DNA; expressed in transfected cells; host or cells: CHO cells, transient (electroporation)", "T2 sequence (Q7TQN8 with tags, fused parts or gaps limits assumed)": "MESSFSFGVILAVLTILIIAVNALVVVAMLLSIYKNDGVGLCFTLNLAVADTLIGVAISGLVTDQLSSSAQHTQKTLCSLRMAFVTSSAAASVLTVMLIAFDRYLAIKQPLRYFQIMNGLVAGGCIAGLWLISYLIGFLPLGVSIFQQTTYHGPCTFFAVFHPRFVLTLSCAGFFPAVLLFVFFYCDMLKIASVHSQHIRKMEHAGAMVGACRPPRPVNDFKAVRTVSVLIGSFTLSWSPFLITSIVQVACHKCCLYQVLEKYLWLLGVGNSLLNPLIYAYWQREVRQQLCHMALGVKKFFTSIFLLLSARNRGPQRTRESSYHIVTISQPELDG", "assay": "cAMP release in CHO cells transiently transfected with SNORF25", "format": "cell-based", "conditions": "10 μM; SNORF25-transfected cells (FIG. 6)", "method": "as §1, §4, §5"}, "[9]": {"molecular_target": "B2 adrenergic receptor (B2AR) (Homo sapiens, UniProt P07550)", "sequence (P07550 whole entry, species assumed)": "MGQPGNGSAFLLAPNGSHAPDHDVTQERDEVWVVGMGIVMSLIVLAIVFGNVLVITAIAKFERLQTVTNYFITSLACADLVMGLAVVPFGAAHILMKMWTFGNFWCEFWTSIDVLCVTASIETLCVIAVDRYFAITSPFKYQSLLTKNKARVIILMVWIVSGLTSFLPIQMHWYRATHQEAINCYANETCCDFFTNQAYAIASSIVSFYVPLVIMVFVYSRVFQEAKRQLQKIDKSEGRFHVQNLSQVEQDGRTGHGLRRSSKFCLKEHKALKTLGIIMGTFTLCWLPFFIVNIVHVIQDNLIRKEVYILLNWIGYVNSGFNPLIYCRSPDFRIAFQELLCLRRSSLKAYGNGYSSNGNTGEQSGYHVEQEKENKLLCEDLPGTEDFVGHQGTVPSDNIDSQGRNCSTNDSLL", "conditions": "1 μM; holding potential −70 mV (FIG. 9C)"}},
  "data": [
    {"compound": "vitamin E", "values": [
      {"measurement": "stimulation of cAMP", "setting": "[1]", "result": "no stimulation of cAMP"}
    ]},
    {"compound": "CCCCC/C=C\\C/C=C\\C/C=C\\C/C=C\\CCCC(=O)O", "note": "[AA]", "values": [
      {"measurement": "stimulation of cAMP", "setting": "[1]", "result": "no stimulation of cAMP"}
    ]},
    {"compound": "CC1=C(/C=C/C(C)=C/C=C/C(C)=C/C=C/C=C(C)/C=C/C=C(C)/C=C/C2=C(C)CCCC2(C)C)C(C)(C)CCC1", "note": "[Atb carotene]", "values": [
      {"measurement": "stimulation of cAMP", "setting": "[1]", "result": "no stimulation of cAMP"}
    ]},
    {"compound": "CC(C)=CCC/C(C)=C/C=C/C(C)=C/C=C/C(C)=C/C=C/C=C(C)/C=C/C=C(C)/C=C/C=C(\\C)CCC=C(C)C", "note": "[licopene]", "values": [
      {"measurement": "stimulation of cAMP", "setting": "[1]", "result": "no stimulation of cAMP"}
    ]},
    {"compound": "CCCCCCCCCCCCCCCCCCOC[C@@H](O)COP(=O)([O-])OCC[N+](C)(C)C", "note": "[Lyso-PAF(C18)]", "values": [
      {"measurement": "CFTR current response", "setting": "[2]", "result": "robust responses"},
      {"measurement": "% of PAF(C18) Response", "setting": "[1]", "result": 70, "unit": "%"},
      {"measurement": "EC50", "setting": "[1]", "result": "5.45 ± 2.63", "unit": "µM"}
    ]},
    {"compound": "CCCCCCCCCCCCCCCCOC[C@@H](O)COP(=O)([O-])OCC[N+](C)(C)C", "note": "[Lyso-PAF(C16)]", "values": [
      {"measurement": "inward Cl- current amplitude", "setting": "[2]; oocytes with SNORF25 and CFTR mRNA", "result": "61.7±7.8", "unit": "nA"},
      {"measurement": "CFTR current response", "setting": "[2]", "result": "robust responses"},
      {"measurement": "% of PAF(C18) Response", "setting": "[1]", "result": 120, "unit": "%"},
      {"measurement": "EC50", "setting": "[1]", "result": "3.48 ± 1.13", "unit": "µM"}
    ]},
    {"compound": "CCCCCCCCCCCCCCCCOC[C@@H](O)COP(=O)([O-])OCC[N+](C)(C)C", "note": "[lyso-PAF]", "values": [
      {"measurement": "EC50", "setting": "[3]; basal (1.7 mM) and stimulatory (16.7 mM) glucose, read-out: EC50 of insulin release", "result": "~100", "unit": "µM"},
      {"measurement": "potency / activation at typical PAF receptors", "setting": "[4]", "result": "not activated"}
    ]},
    {"compound": "1-O-alkyl-2-acetyl-sn-glycero-3-phosphocholine [PAF]", "values": [
      {"measurement": "potency in inducing insulin secretion relative to lyso-PAF", "setting": "[3]", "result": "nearly equipotent to lyso-PAF"},
      {"measurement": "cAMP response in untransfected CHO cells", "setting": "[5]", "result": "No response"},
      {"measurement": "stimulation of cAMP levels", "setting": "[6]", "result": "4–5 fold"},
      {"measurement": "potency / activation at typical PAF receptors", "setting": "[4]", "result": "nanomolar potencies"},
      {"measurement": "stimulation of cAMP levels in mock-transfected cells", "setting": "[7]", "result": "not mock-transfected cells"},
      {"measurement": "Emax of cAMP response", "setting": "[1]; CHO cells expressing SNORF25 (FIG. 11A)", "result": "200–400 % basal"}
    ]},
    {"compound": "CC1=C(/C=C/C(C)=C/C=C/C(C)=C/CO)C(C)(C)CCC1", "note": "[All-trans retinol, all-trans-retinol]", "values": [
      {"measurement": "increase in cAMP", "setting": "[8]", "result": "failed to produce an increase in cAMP"}
    ]},
    {"compound": "C=C1CC[C@H](O)C/C1=C/C=C1\\CCC[C@]2(C)[C@@H]([C@H](C)CCCC(C)C)CC[C@@H]12", "note": "[vitamin D3]", "values": [
      {"measurement": "stimulation of cAMP", "setting": "[1]", "result": "no stimulation of cAMP"}
    ]},
    {"compound": "PAF(C16)", "values": [
      {"measurement": "CFTR current response", "setting": "[2]", "result": "robust responses"},
      {"measurement": "% of PAF(C18) Response", "setting": "[1]", "result": 110, "unit": "%"}
    ]},
    {"compound": "CNC[C@H](O)c1ccc(O)c(O)c1", "note": "[epinephrine]", "values": [
      {"measurement": "CFTR current", "setting": "[9]", "result": "evokes a similar current"}
    ]}
  ]
}
